The target in assay [1] is T1, PRXL2A_C85 (Homo sapiens, UniProt Q9BRX8).
T1 construct: endogenous in cells; host or cells: 22Rv1
T1 sequence (Q9BRX8 1-229): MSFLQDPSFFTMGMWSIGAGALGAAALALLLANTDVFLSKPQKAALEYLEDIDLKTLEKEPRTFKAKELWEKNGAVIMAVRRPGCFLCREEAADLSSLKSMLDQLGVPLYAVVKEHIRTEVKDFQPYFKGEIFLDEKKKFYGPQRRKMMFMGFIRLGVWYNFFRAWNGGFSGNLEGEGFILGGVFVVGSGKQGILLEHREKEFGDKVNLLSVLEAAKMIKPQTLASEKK
Nature of the assay: IA-DTB cysteine engagement. The class given is binding. Particulars: 22Rv1 cells, relative to DMSO; for % engagement PRXL2A_85: 5 μM probe, 1 h (FIG. 5B); for % engagement PRXL2A_C85: 20 μM probe, 1 h. A digest of the protocol: (§1)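 First, cells are exposed to electrophilic probes in situ. Next, lysates are labeled with IA-DTB (1 h, ambient temperature), reduced, alkylated and trypsin-digested. Then, IA-DTB peptides are enriched on streptavidin, TMT-labeled and analyzed, with ratios taken against DMSO channels.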

Assay [2] deals with T2, DHRS13_C174 (Homo sapiens, UniProt Q6UX07).
T2 construct: endogenous in cells; host or cells: 22Rv1
T2 sequence (Q6UX07 26-377): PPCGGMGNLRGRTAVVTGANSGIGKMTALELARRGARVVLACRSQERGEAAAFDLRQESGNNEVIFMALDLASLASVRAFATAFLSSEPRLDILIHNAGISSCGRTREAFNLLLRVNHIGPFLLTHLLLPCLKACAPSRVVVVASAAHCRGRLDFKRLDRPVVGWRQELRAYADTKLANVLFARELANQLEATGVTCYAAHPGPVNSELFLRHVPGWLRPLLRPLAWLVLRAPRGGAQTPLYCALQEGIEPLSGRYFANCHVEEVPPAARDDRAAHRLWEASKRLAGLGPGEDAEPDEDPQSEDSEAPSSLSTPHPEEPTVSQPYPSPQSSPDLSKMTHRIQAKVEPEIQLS
As to the kind of experiment: IA-DTB cysteine engagement. It is filed as binding. Particulars: 22Rv1 cells, 20 μM probe, 1 h, relative to DMSO. A digest of the protocol: as §1

The source of these data is patent US20250034216A1, “STEREOSELECTIVE COVALENT LIGANDS FOR ONCOGENIC AND IMMUNOLOGICAL PROTEINS” (The Scripps Research Institute, priority 2021, published 2025).

For `CC#CC(=O)N1C[C@H](c2ccc(Br)cc2)[C@@H]1C(=O)Nc1cccc2cccnc12` [MY-45B, (2R,3S)-3-(4-bromophenyl)-1-(but-2-ynoyl)-N-(quinolin-8-yl)azetidine-2-carboxamide], the “% engagement PRXL2A_85” value in assay [1] came out at 86.23%.
With `C=CC(=O)N1C[C@H](c2ccc(Br)cc2)[C@H]1C(=O)Nc1cccc2cccnc12` [MY-3A, (2S,3S)-1-acryloyl-3-(4-bromophenyl)-N-(quinolin-8-yl)azetidine-2-carboxamide], in assay [2], the “% engagement DHRS13_C174” value is 42%. In assay [1], the “% engagement PRXL2A_C85” value worked out at 97.5%.
Take `C=CC(=O)N1C[C@@H](c2ccc(Br)cc2)[C@H]1C(=O)Nc1cccc2cccnc12` [MY-1A, (2S,3R)-1-acryloyl-3-(4-bromophenyl)-N-(quinolin-8-yl)azetidine-2-carboxamide]: the “% engagement DHRS13_C174” value in assay [2] turned out to be 60.25%. In addition, the “% engagement PRXL2A_C85” value in assay [1] amounted to 92.5%.
Turning to `C=CC(=O)N1C[C@H](c2ccc(Br)cc2)[C@@H]1C(=O)Nc1cccc2cccnc12` [MY-1B, (2R,3S)-1-acryloyl-3-(4-bromophenyl)-N-(quinolin-8-yl)azetidine-2-carboxamide], in assay [2], the “% engagement DHRS13_C174” value is on record as 69.75%. In assay [1], the “% engagement PRXL2A_85” value came to 91.48% and the “% engagement PRXL2A_C85” value was determined as 98.75%.
For the compound `C=CC(=O)N1C[C@H](c2ccc(Br)cc2)[C@H]1C(=O)Nc1cccc2cccnc12` [MY-3B, (2S,3S)-1-acryloyl-3-(4-bromophenyl)-N-(quinolin-8-yl)azetidine-2-carboxamide], the “% engagement DHRS13_C174” value in assay [2] came out at 61.75%. The “% engagement PRXL2A_C85” value in assay [1] worked out at 98.5%.
